Data published in ChEMBL document CHEMBL4396908, “Sulfamates in drug design and discovery: Pre-clinical and clinical investigations” (Eur J Med Chem, 2019).
One block for each molecule: values may come before it.

Tests used:
MDA-MB-231 [1] = experiment: Antiproliferative activity against estrogen receptor-negative human MDA-MB-231 cells; type: functional, cell-based
MCF7 [2] = experiment: Antitumor activity against human MCF7 cells xenografted in MF-1 nude mouse assessed as tumor growth inhibition at 5 mg/kg, po treated for 4 weeks in presence of 2-deoxy-D-glucose by immunohistochemistry relative to control; type: functional; conditions: 672 h, read-out: TGI
MCF7 [3] = experiment: Antiproliferative activity against estrogen receptor-positive human MCF7 cells; type: functional, cell-based
Rattus norvegicus [4] = experiment: In vivo inhibition of steroid sulfatase in Wistar rat assessed as enzyme recovery at 10 mg/kg, sc single dose treated for 3 days measured after 1 week relative to control; type: functional; design: scale not given: the % may be the effect or the level left
Rattus norvegicus [5] = experiment: In vivo inhibition of steroid sulfatase in Wistar rat assessed as enzyme recovery at 10 mg/kg, sc single dose treated for 10 days measured after 15 days relative to control; type: functional; design: scale not given: the % may be the effect or the level left
Homo sapiens = species: Homo sapiens; experiment: Selectivity ratio of IC50 for human carbonic anhydrase 1 to IC50 for human carbonic anhydrase 9
Carbonic anhydrase 9 = Carbonic anhydrase 9 (Homo sapiens, UniProt Q16790); experiment: Inhibition of human carbonic anhydrase 9
Steryl-sulfatase [6] = biological target: T1, Steryl-sulfatase (Homo sapiens, UniProt P08842); experiment: Inhibition of steroid sulfatase (unknown origin)
T1 sequence (P08842 whole entry): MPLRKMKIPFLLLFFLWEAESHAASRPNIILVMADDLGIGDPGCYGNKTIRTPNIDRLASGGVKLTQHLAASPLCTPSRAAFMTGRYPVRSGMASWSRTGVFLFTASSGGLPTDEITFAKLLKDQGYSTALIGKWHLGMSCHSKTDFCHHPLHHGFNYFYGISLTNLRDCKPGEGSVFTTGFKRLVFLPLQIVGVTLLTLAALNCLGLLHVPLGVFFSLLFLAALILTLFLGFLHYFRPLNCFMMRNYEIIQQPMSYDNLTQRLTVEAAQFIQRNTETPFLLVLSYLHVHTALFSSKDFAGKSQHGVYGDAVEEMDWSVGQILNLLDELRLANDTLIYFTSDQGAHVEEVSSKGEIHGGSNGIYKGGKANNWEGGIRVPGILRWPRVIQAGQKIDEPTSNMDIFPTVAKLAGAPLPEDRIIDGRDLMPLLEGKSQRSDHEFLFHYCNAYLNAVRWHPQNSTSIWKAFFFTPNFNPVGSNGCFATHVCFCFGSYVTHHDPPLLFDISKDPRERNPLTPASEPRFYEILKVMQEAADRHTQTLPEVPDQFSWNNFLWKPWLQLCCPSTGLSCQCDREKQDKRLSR

Steryl-sulfatase [7] = biological target: T1, Steryl-sulfatase; experiment: Inhibition of steroid sulfatase in human MCF7 cells; type: cell-based
Steryl-sulfatase [8] = biological target: T1, Steryl-sulfatase; experiment: Inhibition of steroid sulfatase derived form human placental microsomes; design: species or system Placenta
Rattus norvegicus [9] = experiment: In vivo inhibition of steroid sulfatase in Wistar rat at 10 mg/kg, po after 3 hrs relative to control; type: functional
Rattus norvegicus [10] = experiment: In vivo inhibition of aromatase in Wistar rat at 10 mg/kg, po after 3 hrs relative to control; type: functional
Rattus norvegicus [11] = species: Rattus norvegicus; experiment: animal or person; conditions: Wistar, 3 h
Steryl-sulfatase [12] = biological target: T1, Steryl-sulfatase; experiment: Inhibition of human placental steroid sulfatase
Carbonic anhydrase 2 [13] = biological target: T2, Carbonic anhydrase 2 (Homo sapiens, UniProt P00918); experiment: Inhibition of human carbonic anhydrase 2
Carbonic anhydrase 4 = Carbonic anhydrase 4 (Homo sapiens, UniProt P22748); experiment: Inhibition of human carbonic anhydrase 4
MCF7 [14] = experiment: Antiproliferative activity against human MCF7 cells; type: functional, cell-based
MDA-MB-231 [15] = experiment: Antiproliferative activity against human MDA-MB-231 cells; type: functional, cell-based
Steryl-sulfatase [16] = biological target: T1, Steryl-sulfatase; experiment: Inhibition of steroid sulfatase (unknown origin) expressed in human MCF7 cells; type: cell-based
Steryl-sulfatase [17] = biological target: T1, Steryl-sulfatase; experiment: Inhibition of steroid sulfatase (unknown origin) expressed in CHO cells; type: cell-based
Rattus norvegicus [18] = experiment: In vivo inhibition of steroid sulfatase in Wistar rat at 10 mg/kg, po relative to control; type: functional
MCF7 [19] = experiment: Antiproliferative activity against human MCF7 cells at 1 uM relative to control; type: functional
Acetylcholinesterase = Acetylcholinesterase (Electrophorus electricus, UniProt O42275); experiment: Inhibition of electric ee AChE using acetylthiocholine iodide as substrate preincubated for 15 mins followed by substrate addition by Ellman's method
Cholinesterase = Cholinesterase (Equus caballus, UniProt P81908); experiment: Inhibition of equine BChE using butyrylthiocholine iodide as substrate preincubated for 15 mins followed by substrate addition by Ellman's method
Carbonic anhydrase 2 [20] = biological target: T2, Carbonic anhydrase 2; experiment: Inhibition of human carbonic anhydrase 2 using p-nitrophenylacetate as substrate after 3 mins
Carbonic anhydrase 1 = Carbonic anhydrase 1 (Homo sapiens, UniProt P00915); experiment: Inhibition of human carbonic anhydrase 1 using p-nitrophenylacetate as substrate after 3 mins
Steryl-sulfatase [21] = biological target: T1, Steryl-sulfatase; experiment: Inhibition of human placental steroid sulfatase expressed in HEK293 cells using [3H] E1S as substrate after 2 hrs by liquid scintillation counting method; type: cell-based

Sequence of Carbonic anhydrase 4 (P22748 whole entry): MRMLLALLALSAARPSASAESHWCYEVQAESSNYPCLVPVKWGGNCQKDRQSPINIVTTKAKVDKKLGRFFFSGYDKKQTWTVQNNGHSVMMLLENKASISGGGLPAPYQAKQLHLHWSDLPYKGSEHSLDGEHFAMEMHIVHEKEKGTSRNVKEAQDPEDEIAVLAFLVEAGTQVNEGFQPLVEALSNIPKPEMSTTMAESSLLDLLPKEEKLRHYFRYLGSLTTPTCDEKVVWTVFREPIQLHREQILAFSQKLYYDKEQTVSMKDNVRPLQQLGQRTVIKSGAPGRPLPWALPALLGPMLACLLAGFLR
Sequence of Carbonic anhydrase 1 (P00915 whole entry): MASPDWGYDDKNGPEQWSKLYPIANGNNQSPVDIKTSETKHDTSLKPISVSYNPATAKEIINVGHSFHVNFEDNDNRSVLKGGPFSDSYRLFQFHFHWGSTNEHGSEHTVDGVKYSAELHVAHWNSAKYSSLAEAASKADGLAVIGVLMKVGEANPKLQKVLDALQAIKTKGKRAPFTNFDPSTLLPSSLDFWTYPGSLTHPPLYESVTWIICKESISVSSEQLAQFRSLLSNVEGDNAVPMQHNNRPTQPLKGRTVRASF
Sequence of Cholinesterase (P81908 whole entry): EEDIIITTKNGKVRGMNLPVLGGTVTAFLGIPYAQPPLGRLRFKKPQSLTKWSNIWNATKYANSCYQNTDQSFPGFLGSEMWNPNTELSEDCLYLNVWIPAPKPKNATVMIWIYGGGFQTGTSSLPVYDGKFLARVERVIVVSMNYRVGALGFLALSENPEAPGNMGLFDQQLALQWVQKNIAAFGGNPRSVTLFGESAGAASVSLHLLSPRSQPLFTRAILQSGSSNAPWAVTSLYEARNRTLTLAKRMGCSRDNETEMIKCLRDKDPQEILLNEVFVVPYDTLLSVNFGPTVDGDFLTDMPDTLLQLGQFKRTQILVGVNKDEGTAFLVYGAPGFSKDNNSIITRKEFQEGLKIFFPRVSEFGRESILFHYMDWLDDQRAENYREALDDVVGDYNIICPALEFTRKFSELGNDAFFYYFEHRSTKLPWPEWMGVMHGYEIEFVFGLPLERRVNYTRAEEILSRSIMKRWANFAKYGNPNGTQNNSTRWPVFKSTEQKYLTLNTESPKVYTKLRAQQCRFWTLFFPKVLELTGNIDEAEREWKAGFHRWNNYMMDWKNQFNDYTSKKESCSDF
Sequence of Acetylcholinesterase (O42275 whole entry): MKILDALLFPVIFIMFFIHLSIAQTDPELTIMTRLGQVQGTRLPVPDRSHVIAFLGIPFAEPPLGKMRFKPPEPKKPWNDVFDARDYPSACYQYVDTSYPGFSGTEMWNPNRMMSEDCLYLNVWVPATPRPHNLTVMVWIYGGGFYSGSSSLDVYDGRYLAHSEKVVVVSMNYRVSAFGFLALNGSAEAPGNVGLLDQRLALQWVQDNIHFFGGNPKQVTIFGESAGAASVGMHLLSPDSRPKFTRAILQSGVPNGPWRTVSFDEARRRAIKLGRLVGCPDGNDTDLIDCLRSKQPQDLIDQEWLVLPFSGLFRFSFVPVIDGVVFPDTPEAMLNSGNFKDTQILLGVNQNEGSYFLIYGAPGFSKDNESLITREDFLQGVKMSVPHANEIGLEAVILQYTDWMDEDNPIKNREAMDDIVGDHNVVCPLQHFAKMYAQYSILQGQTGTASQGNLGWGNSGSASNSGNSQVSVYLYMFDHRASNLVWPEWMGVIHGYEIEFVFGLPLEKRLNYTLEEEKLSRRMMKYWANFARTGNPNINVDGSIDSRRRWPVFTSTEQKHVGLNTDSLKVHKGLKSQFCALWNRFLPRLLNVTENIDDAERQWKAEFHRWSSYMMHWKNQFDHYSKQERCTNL

SMILES: COc1cc2c(cc1OS(N)(=O)=O)CC[C@@H]1[C@@H]2CC[C@]2(C)[C@@H](OS(N)(=O)=O)CC[C@@H]12
IC50 (MDA-MB-231 [1]): 0.29 µM
inhibition in vivo at 5 mg/kg (MCF7 [2]): 76%
IC50 (MCF7 [3]): 0.25 µM

SMILES: C[C@]12CC[C@@H]3c4ccc(OS(N)(=O)=O)cc4CC[C@H]3[C@@H]1CCC2=O [EMATE]
Activity (Rattus norvegicus [4]): 10 - 15%
Activity (Rattus norvegicus [5]): 30%

Ratio IC50 (Homo sapiens): 3.38
IC50 (Carbonic anhydrase 9): 0.101 µM
SMILES: NS(=O)(=O)Oc1ccc(/C=C/C(=O)C[C@@H]2O[C@H](CO)[C@@H](O)[C@H](O)[C@H]2O)cc1

IC50 (Steryl-sulfatase [6]): 0.03 µM
SMILES: Cc1cc(=O)oc2cc(OS(N)(=O)=O)ccc12

SMILES: Cc1c(Cc2ccccc2)c(=O)oc2cc(OS(N)(=O)=O)ccc12
IC50 (Steryl-sulfatase [7]): 0.001 µM
IC50 (Steryl-sulfatase [8]): 0.008 µM

IC50 (Rattus norvegicus [11]): 0.205 µM
SMILES: N#Cc1ccc(N(Cc2ccc3c(Br)c(OS(N)(=O)=O)ccc3c2)n2cnnc2)cc1
inhibition in vivo at 10 mg/kg (Rattus norvegicus [9]): 93%
inhibition in vivo at 10 mg/kg (Rattus norvegicus [10]): 93%

IC50 (Steryl-sulfatase [12]): 2.13 µM
SMILES: NS(=O)(=O)Oc1ccc2ccc(=O)oc2c1

Ki (Carbonic anhydrase 2 [13]): 0.0287 to 0.0843 µM
Ki (Carbonic anhydrase 9): 0.0176 to 0.0733 µM
SMILES: NS(=O)(=O)Oc1ccc(NC2=NC(=O)/C(=C\c3ccc([N+](=O)[O-])cc3)S2)cc1

Ki (Carbonic anhydrase 4): 0.0761 µM
Ki (Carbonic anhydrase 2 [13]): 0.0287 to 0.0843 µM
Ki (Carbonic anhydrase 9): 0.0176 to 0.0733 µM
SMILES: NS(=O)(=O)Oc1ccc(NC2=NC(=O)/C(=C\c3ccccc3)S2)cc1

SMILES: CCCCCCc1c(C)c2ccc(OS(N)(=O)=O)cc2oc1=O
IC50 (Steryl-sulfatase [7]): 0.00068 µM
IC50 (Steryl-sulfatase [8]): 0.032 µM

SMILES: CCc1cc2c(cc1OS(N)(=O)=O)CC[C@@H]1[C@@H]2CC[C@]2(C)[C@@H](OS(N)(=O)=O)CC[C@@H]12
IC50 (MCF7 [14]): 0.07 µM
IC50 (MDA-MB-231 [15]): 0.08 µM

Ki (Carbonic anhydrase 4): 0.0423 µM
Ki (Carbonic anhydrase 2 [13]): 0.0287 to 0.0843 µM
Ki (Carbonic anhydrase 9): 0.0176 to 0.0733 µM
SMILES: COc1cc(/C=C2/SC(Nc3ccc(OS(N)(=O)=O)cc3)=NC2=O)cc(OC)c1OC

IC50 (Steryl-sulfatase [16]): 0.00015 to 0.0318 µM
IC50 (Steryl-sulfatase [17]): 0.00015 to 0.0318 µM
SMILES: NS(=O)(=O)Oc1ccc2nc(C=C3C4CC5CC(C4)CC3C5)oc2c1

IC50 (Steryl-sulfatase [6]): 0.001 µM
SMILES: NS(=O)(=O)Oc1ccc2c3c(c(=O)oc2c1)CCCCCC3

SMILES: N#Cc1ccc(N(Cc2ccc(OS(N)(=O)=O)cc2)n2cnnc2)cc1
inhibition in vivo at 10 mg/kg (Rattus norvegicus [18]): > 98%

Ki (Carbonic anhydrase 2 [13]): 0.0287 to 0.0843 µM
Ki (Carbonic anhydrase 9): 0.0176 to 0.0733 µM
SMILES: NS(=O)(=O)Oc1ccc(NC2=NC(=O)/C(=C\c3ccc(F)cc3)S2)cc1

Ki (Carbonic anhydrase 2 [13]): 0.0287 to 0.0843 µM
Ki (Carbonic anhydrase 9): 0.0176 to 0.0733 µM
SMILES: NS(=O)(=O)Oc1ccc(NC2=NC(=O)/C(=C\c3ccc(Cl)cc3)S2)cc1

SMILES: NS(=O)(=O)Oc1ccc(CCNC(=O)C(F)(F)C(F)(F)C(F)(F)C(F)(F)C(F)(F)C(F)(F)C(F)(F)C(F)(F)C(F)(F)C(F)(F)F)cc1
IC50 (Steryl-sulfatase [12]): 2.18 µM

SMILES: COc1cc2c(cc1OS(N)(=O)=O)CC[C@@H]1[C@@H]2CC[C@]2(C)C(=O)CC[C@@H]12
Activity (MCF7 [19]): 52%

SMILES: CC(C)[C@@H]1CC[C@@H](C)C[C@H]1OS(=O)(=O)NC(c1ccccc1)c1ccccc1
IC50 (Acetylcholinesterase): 0.206 µM
IC50 (Cholinesterase): 0.246 µM
IC50 (Carbonic anhydrase 2 [20]): 0.016 µM
IC50 (Carbonic anhydrase 1): 0.044 µM

Ki (Carbonic anhydrase 2 [13]): 0.0287 to 0.0843 µM
Ki (Carbonic anhydrase 9): 0.0176 to 0.0733 µM
SMILES: COc1ccc(/C=C2/SC(Nc3ccc(OS(N)(=O)=O)cc3)=NC2=O)cc1

Ki (Carbonic anhydrase 2 [13]): 0.0287 to 0.0843 µM
Ki (Carbonic anhydrase 9): 0.0176 to 0.0733 µM
SMILES: Cc1ccc(/C=C2/SC(Nc3ccc(OS(N)(=O)=O)cc3)=NC2=O)cc1

Ki (Carbonic anhydrase 2 [13]): 0.0287 to 0.0843 µM
Ki (Carbonic anhydrase 9): 0.0176 to 0.0733 µM
SMILES: NS(=O)(=O)Oc1ccc(NC2=NC(=O)/C(=C\c3cccc4ccccc34)S2)cc1

Ki (Carbonic anhydrase 2 [13]): 0.0287 to 0.0843 µM
Ki (Carbonic anhydrase 9): 0.0176 to 0.0733 µM
SMILES: NS(=O)(=O)Oc1ccc(NC2=NC(=O)/C(=C\c3ccc(C(F)(F)F)cc3)S2)cc1

IC50 (Steryl-sulfatase [21]): 0.0004 µM
SMILES: CCCCCCC(O)(CCCCc1ccc(OS(N)(=O)=O)cc1)c1ccc(C(C)(C)C)cc1 (centres undefined)
